We go through 104 molecules from PubChem BioAssay AID1996.

SMILES strings stand for the structures. In brackets after ≈: the same amount, converted by molar mass. Non-standard residues stand in square brackets, D forms with d. Residues, ends and D or L forms follow the SMILES beside them. ξ: configuration not given here. *: point of attachment. Tos = Cc1ccc(S(=O)(=O)*)cc1; ξP = O=C(O)C1CCCN1

The conditions of the data set: buffer; pH 7.4; 200.0 µM.
In the case of `O=C(Nc1ccc(-c2ccc([N+](=O)[O-])cc2)cc1)c1ccccc1F`, the solubility (kinetic) is less than 0.4 µg/mL. To `Cn1ccsc1=NC(=O)c1ccc(S(C)(=O)=O)cc1` belongs more than 44.5 µg/mL. To `Brc1ccc(COc2cccc3cccnc23)cc1` belongs 2.3 µg/mL (≈ 7.32 µM).

On to `Cc1ccc(C(=O)COC(=O)c2nc(Cl)ccc2Cl)cc1`, for which the solubility (kinetic) was 48.4 µg/mL (≈ 149 µM). Molecule `CSc1ccc(C(=O)NCC(=O)O)cc1[N+](=O)[O-]` displayed a kinetic solubility of more than 40.5 µg/mL. Next, `CC(=O)N=C1SC2CS(=O)(=O)CC2N1Cc1ccc(C)cc1` (centres undefined): 19.7 µg/mL (≈ 58.2 µM); `N#Cc1cccc(CS(=O)(=O)c2ccc(Cl)cc2)c1`: 38.2 µg/mL (≈ 131 µM); `CCN(Cc1ccccc1)C(=O)c1cc2cc(OC)c(OC)cc2[nH]1`: less than 0.4 µg/mL. Next, `CCOc1ccc(NC(=O)Nc2nc(SCC)ns2)cc1`: 0.8 µg/mL (≈ 2.47 µM); `CN(C)CCCCOc1ccccc1F.O=C(O)C(=O)O`: 17.2 µg/mL; `Cc1nc(Cl)c(C(=O)NCc2ccccc2)c(C)c1Cl`: 35.6 µg/mL (≈ 115 µM).

Molecule `COc1ccccc1NS(=O)(=O)c1ccc2oc(=S)[nH]c2c1` gave a solubility (kinetic) of more than 50.5 µg/mL. Next, `CC(C)(C)c1ccc(OCCCn2ccnc2)cc1`: 25.5 µg/mL (≈ 98.7 µM); `Nc1nc(COc2ccccc2C=O)nc(Nc2ccccc2)n1`: 32.5 µg/mL (≈ 101 µM); `CN(C)S(=O)(=O)c1cccc(C(=O)N2CCN(C(=O)C3CCCO3)CC2)c1` (centres undefined): more than 59.3 µg/mL. To `COc1cccc(OP(=O)(Nc2ccccc2)Oc2cccc(OC)c2)c1` belongs less than 0.8 µg/mL; to `O=c1[nH]c(=S)n(C2CC2)c(O)c1C=NCCc1ccccc1`, less than 0.2 µg/mL. With `O=C(O)c1ccc(/C=C/c2nc3ccccc3c(=O)[nH]2)cc1`, the solubility (kinetic) is more than 43.8 µg/mL. To `Cc1cc(Cl)ccc1NC(=S)NCCc1ccc(Cl)cc1` belongs less than 0.4 µg/mL; to `Cc1ccc(NC(=O)C2CCCN2C(=O)OCc2ccccc2)c(C)c1` (centres undefined), 18.5 µg/mL (≈ 52.5 µM); to `O=C(Nc1ccc(Br)cc1)c1ccccc1Br`, 7.3 µg/mL (≈ 20.6 µM). To `O=c1oc2ccccc2c(CNc2ccccc2)c1[N+](=O)[O-]` belongs 3.1 µg/mL (≈ 10.5 µM); to `CNC(=O)Nc1ccc(C2SCCS2)cc1`, 19.9 µg/mL (≈ 78.2 µM); to `COc1ccccc1-n1ccnc1SCC(=O)NC(C)(C)C`, 43.9 µg/mL (≈ 137 µM). In turn, `COc1ccc2c(c1OC)C(=O)OC2Nc1nc2ccccc2s1` (centres undefined) had a kinetic solubility of 50.4 µg/mL (≈ 147 µM). The solubility kinetic values of the last two molecules are within 1.5-fold of each other. To `CCCN1C(=O)c2ccccc2NC1c1ccc(O)c(OCC)c1` (centres undefined) belongs more than 49 µg/mL; to `CC(=O)c1cccc(NC(=O)c2ccc(C)o2)c1`, more than 36.5 µg/mL; to `Cl.O=S(=O)(NCCN1CCOCC1)c1cccs1`, more than 46.9 µg/mL. Next, `CC(=O)Nc1ccc(S(=O)(=O)Nc2nc3ccccc3nc2Nc2ccc(C(=O)O)c(O)c2)cc1`: more than 74 µg/mL; `O=C(Nc1cccc(-c2cscn2)c1)C1CCN(Cc2ccccn2)CC1`: more than 56.8 µg/mL.

For the molecule `CCOC(=O)CSc1nc2cccnc2n1C`, the kinetic solubility is more than 37.7 µg/mL.

Consider `Cc1nc2ccccc2c2c1CC(C(C)(Cl)Br)O2` (centres undefined), for which the kinetic solubility was 26.7 µg/mL (≈ 81.7 µM). Next, `COc1ccc(-n2c(-c3ccccc3)c[n+]3c2CCC3)cc1.[Br-]`: more than 55.7 µg/mL. In turn, `N#Cc1nc(-c2ccc(F)cc2)oc1N1CCCCC1` gave a kinetic solubility of 0.9 µg/mL (≈ 3.32 µM). To `Oc1ccc(N2CCN(Cc3nc4ccccc4[nH]3)CC2)cc1` belongs more than 46.3 µg/mL; to `CN(CC(=O)Nc1ccc(F)c(F)c1F)C(=O)c1ccc(=O)[nH]c1`, more than 50.9 µg/mL; to `CCN(CC)S(=O)(=O)c1ccc(/C=C/C(=O)OCC(=O)NCc2ccco2)cc1`, 17.3 µg/mL (≈ 41.1 µM).

With `Cl.NC(CO)C12CC3CC(CC(C3)C1)C2` (centres undefined), the solubility (kinetic) was more than 34.8 µg/mL. To `CC(C)c1ccc(S(=O)(=O)NCc2ccc3c(c2)OCO3)cc1` belongs 1.9 µg/mL (≈ 5.7 µM); to `CCOc1ccc2nc(S(N)(=O)=O)sc2c1`, more than 38.7 µg/mL. As for `O=C(CN1CCCCCC1)Nc1ccccc1Cl`, the solubility (kinetic) came to 24.9 µg/mL (≈ 93.3 µM).

Molecule `O=C(O)CN1C(=O)/C(=C/c2cccc(Cl)c2)Oc2ccccc21` registered a kinetic solubility of 30.8 µg/mL (≈ 93.4 µM).

The molecule `O=C(NNC(=O)c1ccc([N+](=O)[O-])cc1)c1ccc(NS(=O)(=O)c2cccs2)cc1` registered a kinetic solubility of more than 67 µg/mL.

In the case of `CCC(C(=O)NC(CC(=O)O)c1ccc(Cl)cc1)c1ccccc1` (centres undefined), the solubility (kinetic) was more than 51.9 µg/mL. The molecule `O=C(Nc1ccc(Cl)cc1)Nc1ccon1` returned a solubility (kinetic) of 26.7 µg/mL (≈ 112 µM). Next, `O=C1CC(/C=C/c2ccccc2)=Nc2ccccc2N1`: 2.1 µg/mL (≈ 8.01 µM); `Cl.O=S1(=O)CCC(NC2CCCC2)C1` (centres undefined): more than 36 µg/mL. In turn, `CCOC(=O)c1c(C)[nH]c(C(=O)COC(=O)C2CC2)c1C` had a solubility (kinetic) of 7.8 µg/mL (≈ 26.6 µM). To `COCCCNC(=O)COc1ccc2oc3c(c2c1)CCCC3` belongs 44.2 µg/mL (≈ 139 µM); to `C[C@H](NC(=O)c1ccco1)C(=O)NCc1cccs1`, more than 41.7 µg/mL; to `CN(C)C(=S)SCCn1c(N)nc(N(C)C)nc1=O`, more than 45.4 µg/mL.

Turning to `COc1ccc(CCNC(=O)c2ccc(Cl)nc2)cc1`, the kinetic solubility was found to be 36.5 µg/mL (≈ 126 µM). To `COc1cccc(CC(CC(=O)O)C(=O)Nc2cc(C)ccc2C)c1` (centres undefined) belongs 35.7 µg/mL (≈ 105 µM); to `CCc1ccc(NC(=O)Cn2cnc3c(=O)n(C)c(=O)n(C)c32)cc1`, 18.6 µg/mL (≈ 54.5 µM); to `O=C(COC(=O)c1ccc(F)cc1Cl)NC1CCCCCCC1`, 21.2 µg/mL (≈ 62 µM). Next, `Clc1cccc(CN2CCSCC2)c1Cl`: 1 µg/mL (≈ 3.81 µM); `O=C(O)/C=C/C(=O)Nc1ccc(S(=O)(=O)Nc2nccs2)cc1`: more than 53 µg/mL; `O=C(Nc1cccc2ccccc12)c1cccc(F)c1`: 5.8 µg/mL (≈ 21.9 µM).

Turning to `CCOC(=O)C1CCN(C(=O)Nc2cc(Cl)cc(Cl)c2)CC1`, the kinetic solubility amounted to 20.4 µg/mL (≈ 59.1 µM). This solubility kinetic lies about 3.5-fold higher than the previous one. To `O=C(COC(=O)Cn1cnc2ccccc21)Nc1ccc(F)c(F)c1` belongs more than 51.8 µg/mL; to `COc1ccccc1CNC(=O)c1oc2ccccc2c1C`, 9.8 µg/mL (≈ 33.2 µM); to `COc1ccccc1C(C)NCC(=O)NCc1ccc(C)cc1` (centres undefined), more than 46.9 µg/mL. For `COc1ccc(N(CC(=O)N2CCOCC2)S(C)(=O)=O)cc1OC`, the kinetic solubility was more than 53.8 µg/mL. Next, `Cc1ccc(NC(=S)Nc2ccc3[nH]c(=O)[nH]c3c2)cc1C`: 17.9 µg/mL (≈ 57.3 µM); `O=C(NC1(C(F)(F)F)N=C2SCCN2C1=O)c1ccccc1F` (centres undefined): 50.5 µg/mL (≈ 145 µM).

The molecule `Cl.OC(COCc1ccccc1F)CN1CCCCC1` (centres undefined) had a solubility (kinetic) of 44.1 µg/mL. The solubility kinetic values of the last two molecules are within 1.5-fold of each other. `C/C(CC(=O)Nc1ccccn1)=N\NC(=O)c1cccc(C)c1` returned a solubility (kinetic) of more than 46.6 µg/mL.

Consider `COc1ccc(NC(=O)CN(C)C(=O)CCC2CCCC2)cc1`, for which the solubility (kinetic) was 45.5 µg/mL (≈ 143 µM). Next, `O=C(NCc1ccc2c(c1)OCO2)c1cccnc1Cl`: 37.9 µg/mL (≈ 130 µM); `CC1(c2ccc(Cl)cc2)NC(=O)N(CC(=O)NC2CCCCC2)C1=O` (centres undefined): more than 54.6 µg/mL; `COc1ccc(CNC(=O)c2cc3ccccc3o2)cc1OC`: more than 46.7 µg/mL. To `CC(CCc1ccccc1)NC(=O)C1CC1` (centres undefined) belongs more than 32.6 µg/mL; to `N/C(CS(=O)(=O)c1ccccc1)=N\OC(=O)c1ccc(F)cc1`, 8.8 µg/mL (≈ 26.2 µM). Next, `O=C(OCC(=O)N1CCOCC1)c1ccccc1OCc1ccc(Cl)cc1`: more than 58.5 µg/mL; `S=C(NCc1ccccc1)Nc1ccc(Oc2ccccc2)cc1`: 6.8 µg/mL (≈ 20.3 µM); `NC(=O)C1CCN(C(=O)c2ccccc2CCc2ccccc2)CC1`: more than 50.5 µg/mL. Take `CN(Cc1ccccc1)C(=O)COC(=O)CCC(=O)c1ccc(Cl)cc1`: the solubility (kinetic) amounted to 9.6 µg/mL (≈ 25.7 µM). To `OCc1nc2ccccc2n1CCOc1ccccc1` belongs more than 40.2 µg/mL. Next, `O=S(=O)(NCc1ccc2c(c1)OCO2)c1ccc(F)cc1`: more than 46.4 µg/mL; `COc1ccc(NC(=O)c2ccc3ccccc3c2OC)cc1`: less than 0.7 µg/mL; `CCc1ccc(NC(=S)Nc2cccc3cnccc23)cc1`: 11.6 µg/mL (≈ 37.7 µM). For `Cc1ccnc(N2C(=O)c3ccccc3C2=O)c1`, the kinetic solubility was more than 35.7 µg/mL. Next, `CCN(C(=O)CCCCC(=O)N(CC)c1ccccc1)c1ccccc1`: more than 52.9 µg/mL. To `O=C(c1cc([N+](=O)[O-])ccc1N1CCCC1)N1CCCCC1` belongs 25.9 µg/mL (≈ 85.4 µM); to `COc1cccc(C(=O)NCCCNC(=O)c2ccco2)c1`, 40.8 µg/mL (≈ 135 µM); to `CCc1nc2ccccc2n1CC(O)COCC1CC=CCC1` (centres undefined), more than 47.2 µg/mL. In turn, `O=C(Cn1c(C(=O)O)cc2ccccc21)c1ccccc1` showed a solubility (kinetic) of 39.2 µg/mL (≈ 140 µM). In turn, `COc1ccc(C(=O)n2cnc3ccccc32)cc1` came in with a solubility (kinetic) of more than 37.8 µg/mL. To `Cc1ccc(S(=O)(=O)NCC(=O)N2CCCC2C(=O)O)cc1` (stereo not drawn) (Tos-Gly-[ξP]-OH) belongs more than 49 µg/mL. Next, `Nc1cc(-c2ccccc2)n2c(n1)nc1ccccc12`: 5.7 µg/mL (≈ 21.9 µM); `CC(O)CNCCOc1ccccc1-c1ccccc1.O=C(O)C(=O)O` (centres undefined): more than 54.2 µg/mL.

The molecule `Cc1ccccc1OCC(=O)Nc1ccc(N2CCN(C)CC2)c(Cl)c1` showed a kinetic solubility of 12.3 µg/mL (≈ 32.9 µM). Regarding `CN(C)CCCN(Cc1ccc2c(c1)OCO2)C(=O)NC1CCCCC1`, the solubility (kinetic) was more than 54.2 µg/mL.

With `COCc1c(C(=O)OCC(=O)c2ccc[nH]2)oc2ccccc12`, the kinetic solubility worked out at 11.1 µg/mL (≈ 35.4 µM). `C=CCSc1nc2sc3c(c2c(=O)n1CC)CCc1ccccc1-3` showed a kinetic solubility of more than 53.2 µg/mL.

As to `O=C(CCCCC(=O)NCCc1ccccc1)NCCc1ccccc1`, the solubility (kinetic) turned out to be 2.8 µg/mL (≈ 7.94 µM). Turning to `O=C(CNC(=O)c1ccco1)Nc1ccc(F)c(Cl)c1`, the kinetic solubility was 2.5 µg/mL (≈ 8.43 µM).

Molecule `O=C(NC1CCCCC1)c1cc(-c2ccc(F)cc2)on1` had a solubility (kinetic) of less than 0.3 µg/mL. In turn, `COc1cnc(-c2ccccc2)nc1OC` came in with a solubility (kinetic) of 19.1 µg/mL (≈ 88.3 µM). To `O=C(CNC(=O)c1cnccc1C(F)(F)F)c1cccc(Cl)c1` belongs 25.3 µg/mL (≈ 73.8 µM).

`O=C1NC(C(F)(F)F)(C(F)(F)F)N=C2SC=CN12`: the solubility (kinetic) is 41.6 µg/mL (≈ 143 µM).

In the case of `COc1ccc(S(=O)(=O)NCCCN2CCCC2=O)c(OC)c1`, the solubility (kinetic) is more than 51.4 µg/mL.

Take `Cc1c(/C=N/NC(=O)c2ccc(Br)o2)cnn1C`: the solubility (kinetic) is more than 46.7 µg/mL. To `O=Cc1c(N2CCC3(CC2)OCCO3)nc2ccccn2c1=O` belongs more than 47.3 µg/mL.

A word on the solubility (kinetic): it is the concentration staying in solution when a stock, usually in DMSO, is diluted into the medium.
